Experimental findings from US20190134005A1 (BioMarin Pharmaceutical Inc., priority 2016, published 2019) are described below.

The test addresses T1, human CGT (Homo sapiens, UniProt Q16880).
T1 sequence (Q16880 21-541): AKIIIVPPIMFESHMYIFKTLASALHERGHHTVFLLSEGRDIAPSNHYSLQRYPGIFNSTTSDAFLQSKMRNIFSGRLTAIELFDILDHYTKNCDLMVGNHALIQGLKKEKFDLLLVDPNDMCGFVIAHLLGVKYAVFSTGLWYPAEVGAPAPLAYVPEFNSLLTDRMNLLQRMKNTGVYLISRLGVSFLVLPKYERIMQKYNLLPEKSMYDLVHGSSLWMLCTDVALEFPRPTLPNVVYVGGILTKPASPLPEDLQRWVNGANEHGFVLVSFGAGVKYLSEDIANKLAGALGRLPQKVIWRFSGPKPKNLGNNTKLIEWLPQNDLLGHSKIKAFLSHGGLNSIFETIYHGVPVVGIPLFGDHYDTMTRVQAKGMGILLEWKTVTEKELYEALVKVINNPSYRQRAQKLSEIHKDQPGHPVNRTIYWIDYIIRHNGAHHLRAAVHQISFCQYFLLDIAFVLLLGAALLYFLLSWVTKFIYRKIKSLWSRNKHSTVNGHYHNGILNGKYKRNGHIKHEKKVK
The experiment in a line: Assay 1: CGT Enzymatic Assay (RapidFire/MS/MS, 0.01% Tween 80). The note with it: Table 1, Compounds of Formula (I) and Formula (II), CGT enzymatic assay, read-out: IC50. It is filed as biochemical.

The structures appear in SMILES notation. Like-named read-outs stand apart in the source and are kept apart here.

On to `COc1ccc(C2(O)CN(c3ccc(Br)cc3)C(=O)N2c2ccc(Br)cc2)cn1` (stereo not drawn) [Example 54, 1,3-bis(4-bromophenyl)-4-hydroxy-4-(6-methoxypyridin-3-yl)imidazolidin-2-one], for which the IC50 was greater than 50 µM. As for `N#Cc1cccc(C2(O)[C@@H](CC3CC3)N(c3ccc(Cl)cc3)C(=O)N2c2ccc(Cl)cc2)c1` (single isomer, unassigned) [Compound 132-2], the IC50 is less than 1 µM. Consider `O=C1N(c2ccc(Br)cc2)[C@H](C2CC2)C(O)(c2ccccc2)N1c1ccc(Br)cc1` (stereo partly drawn) [Compound 115-2, (5R)-1,3-bis(4-bromophenyl)-5-cyclopropyl-4-hydroxy-4-phenylimidazolidin-2-one], for which the IC50 is less than 1 µM. With `CCc1c(-c2ccccc2)n(-c2ccc(Br)cc2)c(=O)n1-c1ccc(Br)cc1` [Compound 264, 1,3-bis(4-bromophenyl)-4-ethyl-5-phenyl-1,3-dihydro-2H-imidazol-2-one], the IC50 is less than 1 µM. For `CCC[C@@H]1N(c2ccc(Cl)cc2)C(=O)N(c2ccc(Cl)cc2)C1(O)c1cccc(Cl)c1` (stereo partly drawn) [Compound 114-1, (5S)-4-(3-chlorophenyl)-1,3-bis(4-chlorophenyl)-4-hydroxy-5-propylimidazolidin-2-one], the IC50 was less than 1 µM. Turning to `CCc1cccc(C2(O)[C@@H](C)N(c3ccc(Cl)cc3)C(=O)N2c2ccc(Cl)cc2)c1` (stereo partly drawn) [Compound 69-2, (5R)-1,3-bis(4-chlorophenyl)-4-(3-ethylphenyl)-4-hydroxy-5-methylimidazolidin-2-one], the IC50 was less than 1 µM. Regarding `CCC[C@H]1N(c2ccc(Cl)cc2)C(=O)N(c2ccc(Cl)cc2)C1(O)c1cccc(CC)c1` (stereo partly drawn) [Compound 89-2, (5R)-1,3-bis(4-chlorophenyl)-4-(3-ethylphenyl)-4-hydroxy-5-propylimidazolidin-2-one], the IC50 was less than 1 µM. Regarding `N#Cc1cccc(C2(O)N(c3ccc(Cl)cc3)C(=O)N(c3ccc(Cl)cc3)C23CCOC3)c1` (stereo not drawn) [Example 221, 3-(1,3-bis(4-chlorophenyl)-4-hydroxy-2-oxo-7-oxa-1,3-diazaspiro[4.4]nonan-4-yl)benzonitrile], the IC50 was less than 1 µM. The same measure, in the same setting: then `O=C1N(c2ccc(Br)cc2)C(=O)C(O)(c2ccc(OC3CC3)c(Cl)c2)N1c1ccc(Br)cc1` (stereo not drawn) [Example 171, 1,3-bis(4-bromophenyl)-5-(3-chloro-4-cyclopropoxyphenyl)-5-hydroxyimidazolidine-2,4-dione], with 50 to 100 µM. Take `CC(C)c1ccc(C2(O)C(=O)N(c3ccccc3)C(=O)N2c2ccccc2)cc1` (stereo not drawn) [Compound 153, 5-hydroxy-5-(4-isopropylphenyl)-1,3-diphenylimidazolidine-2,4-dione]: the IC50 was greater than 50 µM. Same read-out and setting: the figure for `CC[C@@H]1N(c2ccc(Cl)cc2)C(=O)N(c2ccc(Cl)cc2)C1(O)c1cccc(C#N)c1` (single isomer, unassigned) [Compound 106-1] is less than 1 µM; for `CCc1c(-c2cccc(C#N)c2)n(-c2ccc(Cl)cc2)c(=O)n1-c1ccc(Cl)cc1` [Compound 258, 3-(1,3-bis(4-chlorophenyl)-5-ethyl-2-oxo-2,3-dihydro-1H-imidazol-4-yl)benzonitrile] it is less than 1 µM; for `O=c1n(-c2ccc(Br)cc2)cc(-c2ccc[nH]2)n1-c1ccc(Br)cc1` [Compound 256, 1,3-bis(4-bromophenyl)-4-(1H-pyrrol-2-yl)-1,3-dihydro-2H-imidazol-2-one] it is greater than 50 µM. For the molecule `CC(C)C1(c2cccc(C#N)c2)C(O)N(c2ccc(Br)cc2)C(=O)N1c1ccc(Br)cc1` (stereo not drawn) [Example 232, 3-(1,3-bis(4-bromophenyl)-5-hydroxy-4-isopropyl-2-oxoimidazolidin-4-yl)benzonitrile], the IC50 lay within 1 to 10 µM. As to `COc1ccc(N2C(=O)N(c3ccc(OC)cc3)C(O)(c3cccc(OC(F)(F)F)c3)[C@H]2C(C)C)cc1` (stereo partly drawn) [Example 329-2, (5R)-4-hydroxy-5-isopropyl-1,3-bis(4-methoxyphenyl)-4-(3-(trifluoromethoxy)phenyl)imidazolidin-2-one], where the note is “C6-NBD-dihydro-galactosylceramide readout”, the IC50 was less than 1 µM.

For orientation: IC50 means the concentration at which inhibition is half-maximal.
